Data from ChEMBL document CHEMBL1201862, “PubChem BioAssay data set” (2004).
Activity calls are given as the source filed them.

Legend:
[1] = target: Transitional endoplasmic reticulum ATPase (Homo sapiens, UniProt P55072); assay: Luminescence dose response biochemical high throughput screening assay for inhibitors of the p97 ATPase: synthesized compounds. [Related pubchem assays: 1481, 1517 ]
[2] = target: Transitional endoplasmic reticulum ATPase (Homo sapiens, UniProt P55072, C522A); assay: Luminescence counterscreen assay for p97 inhibitors: dose response biochemical high throughput screening assay to identify inhibitors of the C522A mutant p97 ATPase: synthesized compounds. [Related pubchem assays: 1481, 1517, 1551 ]
[3] = HEK-293T viability loss after treatment – luminescence, T-cell screen hits, cytotoxicity control for TCR NF-kB inhibitor project, dose response (AID 489026); type: functional, cell-based;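 also: cells exposed to compound about 14 hours before the viability readout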
BJ [4] = assay: cells; type: functional, cell-based; conditions: Homo sapiens
BJ [5] = assay: BJ-TERT fibroblast viability loss – cell-based, RAS-independent, luminescence, dose response (AID 1933); type: functional; conditions: Homo sapiens
[6] = Luminescence-based dose response cell-based high throughput screening assay for cytotoxic compounds using the IEC-6 intestinal epithelial cell line. [Related pubchem assays: 1858 (Summary AID.), 1825 (Counterscreen.), 1907 (Confirmation screen.)]; type: functional
BJ [7] = assay: BJ-TERT-LT-ST fibroblast viability loss – cell-based, RAS-independent, luminescence, dose response (AID 1935); type: functional; conditions: Homo sapiens;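 also: BJ fibroblasts immortalized with TERT plus LT and ST oncogenes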
[8] = DRD fibroblast viability loss – cell-based, non-viral oncogenic, luminescence, dose response (AID 1934); type: functional; conditions: Homo sapiens
Cytochrome P450 2C9 = Cytochrome P450 2C9 (Homo sapiens, UniProt P11712)
[9] = M. tuberculosis H37Rv growth inhibitors, H37Rv strain (AID 1626); type: functional
Genome polyprotein [10] = target: T1, Genome polyprotein (Hepatitis C virus, UniProt Q2Q167); assay: disruption of hepatitis C core self-association – biochemical, TR-FRET, dose response (AID 2159); design: species or system Hepacivirus hominis;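 also: blocks dimerization of HCV core protein measured by TR-FRET between tagged core106 pairs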
[11] = target: T2, Small ubiquitin-related modifier 1 (Homo sapiens, UniProt P63165); assay: SUMO1 protein interaction blockers, potency – biochemical, fluorescence polarization, uHTS hits, dose response (AID 624382); type: functional; conditions: read-out: IC50_Mean
Genome polyprotein [12] = target: T1, Genome polyprotein; assay: Late stage assay provider counterscreen results for the probe development effort to identify inhibitors of Hepatitis C Virus (HCV) core protein dimerization: Luminescence-based biochemical AlphaScreen assay to identify inhibitors of HCV core dimerization.; type: functional, Hepacivirus hominis
Albumin = Albumin (Bos taurus, UniProt P02769); assay: Counterscreen for inhibitors of T-cell receptor (TCR)-CD3 interaction: Fluorescence-based biochemical high throughput dose response assay to identify inhibitors of T-cell receptor (TCR)-CD3 interaction using a TAMRA-labeled BSA probe.; type: functional
[13] = target: Induced myeloid leukemia cell differentiation protein Mcl-1 (Homo sapiens, UniProt Q07820); assay: blockers of MCL1 binding to BIM peptide – biochemical, fluorescence polarization, BIM-BH3 peptide, 1536-well, dose response (AID 2217)
Bcl-2-like protein 1 = Bcl-2-like protein 1 (Homo sapiens, UniProt Q07817); assay: blockers of BCLXL peptide binding – biochemical, fluorescence polarization, 1536-well, selectivity assay for MCL1 inhibitor project, dose response (AID 2218)
[14] = target: T2, Small ubiquitin-related modifier 1; assay: SUMO1 protein-protein binding blockers, potency – biochemical, FRET, dose response (AID 624383); type: functional; conditions: read-out: IC50_Mean
Large T antigen = Large T antigen (Simian virus 40, UniProt P03070); type: functional, Betapolyomavirus macacae;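 also: Confirmatory-stage PubChem screen for compounds that inhibit SV40 T antigen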
Leucine aminopeptidase = target: T3, Leucine aminopeptidase (Plasmodium falciparum 3D7, UniProt Q8IL11); assay: P. falciparum M17LAP inhibitors, primary screen, biochemical, fluorogenic H-Leu-NHMec substrate, 1536-well (AID 1619); type: functional
T3 sequence (Q8IL11 whole entry): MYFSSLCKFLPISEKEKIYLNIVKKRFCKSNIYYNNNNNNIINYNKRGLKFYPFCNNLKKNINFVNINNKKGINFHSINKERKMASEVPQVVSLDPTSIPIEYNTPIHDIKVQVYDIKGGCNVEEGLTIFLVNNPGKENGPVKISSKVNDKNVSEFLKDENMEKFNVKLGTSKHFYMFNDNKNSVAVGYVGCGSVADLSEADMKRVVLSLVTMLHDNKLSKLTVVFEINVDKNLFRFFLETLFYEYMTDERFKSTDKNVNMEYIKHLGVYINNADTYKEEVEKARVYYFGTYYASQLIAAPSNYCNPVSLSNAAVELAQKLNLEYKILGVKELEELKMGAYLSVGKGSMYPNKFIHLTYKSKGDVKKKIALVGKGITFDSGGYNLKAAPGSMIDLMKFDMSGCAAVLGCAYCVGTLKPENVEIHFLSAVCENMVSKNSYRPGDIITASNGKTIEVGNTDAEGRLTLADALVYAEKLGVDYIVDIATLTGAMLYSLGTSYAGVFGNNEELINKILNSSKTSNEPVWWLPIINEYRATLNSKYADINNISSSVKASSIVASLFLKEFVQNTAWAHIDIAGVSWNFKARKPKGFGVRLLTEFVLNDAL

Aspartyl aminopeptidase = Aspartyl aminopeptidase (Plasmodium falciparum 3D7, UniProt Q8I2J3); assay: Counterscreen for inhibitors of M1 and M17 aminopeptidases: QFRET-based biochemical high throughput dose response assay for inhibitors of the Plasmodium falciparum M18 Aspartyl Aminopeptidase (PFM18AAP). [Related PubChem assays: 1619 (Screening assay (M17LAP inhibitors).), 1445 (Screening assay (M1AAP inhibitors).)]
Procathepsin L = Procathepsin L (Homo sapiens, UniProt P07711); assay: CTSL1 protease inhibition – biochemical, QFRET, 1536-well, counter-screen for M1/M17 aminopeptidase inhibitor project, dose response (AID 2214)
[15] = NIH3T3 cell viability loss – ATP luminescence, mouse fibroblasts, counter-screen, dose response (AID 2010); type: functional, cell-based;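 also: cells exposed to compound for about 90 hours before reading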
[16] = target: G-protein coupled receptor 55 (Homo sapiens, UniProt Q9Y2T6); assay: selective activators of receptor GPR55 – imaging, U2OS cells, beta-arrestin-GFP redistribution, primary screen (AID 1961); type: functional
Vero = assay: mammalian cell viability reduction – secondary assay, cytotoxicity control for West Nile virus antiviral project, dose response (AID 1650); type: functional; conditions: Chlorocebus sabaeus
[17] = target: Heat shock protein HSP 90-alpha (Homo sapiens, UniProt P07900); type: functional, organism-based
[18] = Trypanosoma cruzi growth suppression in host cells – NIH3T3 host cells, beta-gal luminescence, confirmation (AID 2044); type: functional, cell-based;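 also: intracellular parasites grown in NIH/3T3 mouse fibroblasts as host cells; luminescent beta-galactosidase reporter signal from transgenic T. cruzi replicating inside host cells; inhibitors lower the luminescence signal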
[19] = target: T4, Heat shock factor protein 1 (Mus musculus, UniProt P38532); assay: enhancement of HSF1-driven luciferase signal – cell-based, NIH3T3, luminescence, dose retest, confirmation (AID 435004); type: functional;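 also: stress induced by proteasome inhibitor MG132 added 30 min after compound; luciferase reporter driven by HSF1 response element in NIH3T3 cells; actives raise luminescence as potentiators of the MG132 stress response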
T4 sequence (P38532 whole entry): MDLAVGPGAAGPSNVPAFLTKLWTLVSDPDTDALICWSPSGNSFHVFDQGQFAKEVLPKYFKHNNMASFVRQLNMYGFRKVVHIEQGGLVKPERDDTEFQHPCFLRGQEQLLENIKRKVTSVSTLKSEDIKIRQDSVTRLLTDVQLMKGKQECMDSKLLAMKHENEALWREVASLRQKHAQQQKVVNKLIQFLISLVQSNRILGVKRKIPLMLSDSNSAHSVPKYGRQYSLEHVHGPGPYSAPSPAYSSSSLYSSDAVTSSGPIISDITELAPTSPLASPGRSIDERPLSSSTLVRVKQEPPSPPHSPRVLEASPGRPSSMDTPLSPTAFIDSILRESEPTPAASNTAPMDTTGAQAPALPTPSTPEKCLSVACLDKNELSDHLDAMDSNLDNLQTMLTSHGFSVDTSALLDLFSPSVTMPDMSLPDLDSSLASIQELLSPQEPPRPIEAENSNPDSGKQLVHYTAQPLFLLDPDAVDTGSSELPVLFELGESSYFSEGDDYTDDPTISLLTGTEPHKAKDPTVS

[20] = target: T5, RNA-binding protein pos-1 (Caenorhabditis elegans, UniProt G5EF15); assay: disruptors of C. elegans POS-1 RNA interaction – biochemical, fluorescence polarization, dose response (AID 1964);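 also: purified POS-1 fused to maltose binding protein made in E. coli; potency of compounds blocking POS-1 binding to fluorescent RNA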
T5 sequence (G5EF15 whole entry): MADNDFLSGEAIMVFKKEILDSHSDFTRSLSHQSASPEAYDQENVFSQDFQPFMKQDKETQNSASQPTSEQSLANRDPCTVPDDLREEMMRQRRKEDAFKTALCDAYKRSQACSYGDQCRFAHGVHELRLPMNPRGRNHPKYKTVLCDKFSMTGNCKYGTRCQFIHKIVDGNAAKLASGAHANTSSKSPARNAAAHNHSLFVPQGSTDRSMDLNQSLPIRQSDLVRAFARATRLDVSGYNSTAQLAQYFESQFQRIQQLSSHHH

[21] = target: T6, Zinc finger protein mex-5 (Caenorhabditis elegans, UniProt Q9XUB2); assay: potency of MEX-5 RNA-binding blockers – biochemical, C. elegans, fluorescence polarization, dose response (AID 1960)
T6 sequence (Q9XUB2 whole entry): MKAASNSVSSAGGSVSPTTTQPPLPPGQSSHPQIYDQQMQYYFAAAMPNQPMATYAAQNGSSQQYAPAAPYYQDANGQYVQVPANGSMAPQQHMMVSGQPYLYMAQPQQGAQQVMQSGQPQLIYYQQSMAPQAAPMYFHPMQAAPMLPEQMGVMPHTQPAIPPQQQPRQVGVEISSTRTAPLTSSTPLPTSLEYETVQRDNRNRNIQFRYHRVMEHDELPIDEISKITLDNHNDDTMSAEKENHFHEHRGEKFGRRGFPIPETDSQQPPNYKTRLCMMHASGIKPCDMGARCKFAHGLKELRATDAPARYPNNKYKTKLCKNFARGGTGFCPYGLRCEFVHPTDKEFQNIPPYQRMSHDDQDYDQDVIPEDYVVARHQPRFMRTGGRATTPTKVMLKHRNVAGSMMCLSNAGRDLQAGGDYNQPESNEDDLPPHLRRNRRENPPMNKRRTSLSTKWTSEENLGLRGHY

Estrogen receptor = target: T7, Estrogen receptor (Homo sapiens, UniProt P03372);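 also: potency for inhibiting coactivator peptide recruitment to the receptor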
T7 sequence (P03372 whole entry): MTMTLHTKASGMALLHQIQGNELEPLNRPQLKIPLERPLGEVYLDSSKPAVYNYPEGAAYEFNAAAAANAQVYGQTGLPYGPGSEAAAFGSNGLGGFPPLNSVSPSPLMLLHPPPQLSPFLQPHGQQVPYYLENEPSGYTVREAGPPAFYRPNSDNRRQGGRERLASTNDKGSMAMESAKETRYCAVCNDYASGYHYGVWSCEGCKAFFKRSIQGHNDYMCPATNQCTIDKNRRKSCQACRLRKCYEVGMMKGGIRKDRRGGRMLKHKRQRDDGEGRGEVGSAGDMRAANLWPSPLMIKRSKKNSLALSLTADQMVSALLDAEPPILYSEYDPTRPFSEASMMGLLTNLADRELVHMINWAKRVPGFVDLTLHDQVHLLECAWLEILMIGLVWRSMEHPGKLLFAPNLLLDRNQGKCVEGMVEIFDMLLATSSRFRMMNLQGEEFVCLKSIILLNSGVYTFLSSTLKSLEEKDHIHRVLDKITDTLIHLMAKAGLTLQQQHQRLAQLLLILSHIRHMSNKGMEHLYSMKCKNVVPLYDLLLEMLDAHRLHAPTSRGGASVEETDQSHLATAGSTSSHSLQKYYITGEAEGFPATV

[22] = HPDE-C7 pancreatic duct cell viability loss – fluorescence, HTS (AID 430); type: functional, cell-based; conditions: Homo sapiens
[23] = target: Glucose-6-phosphate 1-dehydrogenase (Homo sapiens, UniProt P11413); assay: inhibition of Homo sapiens G6PD, dose series – biochemical, fluorescence, selectivity assay for P. falciparum G6PD inhibitor project, dose response (AID 504792); type: functional
14-3-3 protein gamma = 14-3-3 protein gamma (Homo sapiens, UniProt P61981); assay: modulators of 14-3-3 gamma client binding – dose response (AID 711); type: functional
[24] = viability loss of HPDE-C7K cells – cell-based, fluorescence, HTS, primary screen (AID 431); type: functional; conditions: Homo sapiens

T2 sequence (P63165 whole entry): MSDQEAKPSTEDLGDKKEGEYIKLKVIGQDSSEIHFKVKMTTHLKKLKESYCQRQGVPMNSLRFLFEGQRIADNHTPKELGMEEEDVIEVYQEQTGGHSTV
T1 sequence (Q2Q167 whole entry): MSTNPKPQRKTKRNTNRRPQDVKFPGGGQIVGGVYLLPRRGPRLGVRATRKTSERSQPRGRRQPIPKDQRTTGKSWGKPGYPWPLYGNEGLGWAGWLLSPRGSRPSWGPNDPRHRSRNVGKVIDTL
Large T antigen, sequence (P03070 whole entry): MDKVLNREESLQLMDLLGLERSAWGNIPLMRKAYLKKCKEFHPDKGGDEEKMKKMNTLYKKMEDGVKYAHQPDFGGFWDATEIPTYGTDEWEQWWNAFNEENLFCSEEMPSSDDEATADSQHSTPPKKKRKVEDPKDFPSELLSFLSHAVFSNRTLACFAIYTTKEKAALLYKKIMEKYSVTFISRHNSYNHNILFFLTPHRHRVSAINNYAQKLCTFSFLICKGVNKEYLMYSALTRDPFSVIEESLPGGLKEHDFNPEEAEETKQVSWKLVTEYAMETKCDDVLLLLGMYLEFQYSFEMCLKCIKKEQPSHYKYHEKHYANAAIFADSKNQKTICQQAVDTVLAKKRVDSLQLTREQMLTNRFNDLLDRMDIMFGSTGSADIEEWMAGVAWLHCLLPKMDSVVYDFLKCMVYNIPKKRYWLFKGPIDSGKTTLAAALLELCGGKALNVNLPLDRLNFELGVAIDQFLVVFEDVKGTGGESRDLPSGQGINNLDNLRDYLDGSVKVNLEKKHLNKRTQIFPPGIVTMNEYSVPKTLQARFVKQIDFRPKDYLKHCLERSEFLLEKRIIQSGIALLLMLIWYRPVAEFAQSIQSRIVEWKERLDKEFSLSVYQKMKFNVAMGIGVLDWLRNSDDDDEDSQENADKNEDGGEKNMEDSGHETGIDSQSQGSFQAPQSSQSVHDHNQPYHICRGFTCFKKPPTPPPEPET
Procathepsin L, sequence (P07711 whole entry): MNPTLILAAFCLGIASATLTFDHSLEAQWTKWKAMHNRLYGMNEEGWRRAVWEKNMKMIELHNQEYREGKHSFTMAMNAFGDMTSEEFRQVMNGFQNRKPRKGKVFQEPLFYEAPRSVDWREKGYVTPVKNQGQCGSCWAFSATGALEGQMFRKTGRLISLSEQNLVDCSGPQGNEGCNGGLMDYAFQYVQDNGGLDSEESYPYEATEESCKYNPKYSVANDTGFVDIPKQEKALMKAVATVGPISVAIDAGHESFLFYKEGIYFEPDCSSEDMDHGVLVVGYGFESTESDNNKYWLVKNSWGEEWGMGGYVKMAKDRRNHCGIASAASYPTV
14-3-3 protein gamma, sequence (P61981 whole entry): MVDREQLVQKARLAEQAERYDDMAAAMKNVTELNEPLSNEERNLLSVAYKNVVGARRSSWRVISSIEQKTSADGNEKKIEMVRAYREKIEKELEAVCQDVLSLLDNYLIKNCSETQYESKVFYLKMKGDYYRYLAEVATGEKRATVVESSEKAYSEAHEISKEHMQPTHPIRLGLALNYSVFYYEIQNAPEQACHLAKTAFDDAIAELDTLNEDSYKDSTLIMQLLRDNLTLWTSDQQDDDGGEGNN
Albumin, sequence (P02769 whole entry): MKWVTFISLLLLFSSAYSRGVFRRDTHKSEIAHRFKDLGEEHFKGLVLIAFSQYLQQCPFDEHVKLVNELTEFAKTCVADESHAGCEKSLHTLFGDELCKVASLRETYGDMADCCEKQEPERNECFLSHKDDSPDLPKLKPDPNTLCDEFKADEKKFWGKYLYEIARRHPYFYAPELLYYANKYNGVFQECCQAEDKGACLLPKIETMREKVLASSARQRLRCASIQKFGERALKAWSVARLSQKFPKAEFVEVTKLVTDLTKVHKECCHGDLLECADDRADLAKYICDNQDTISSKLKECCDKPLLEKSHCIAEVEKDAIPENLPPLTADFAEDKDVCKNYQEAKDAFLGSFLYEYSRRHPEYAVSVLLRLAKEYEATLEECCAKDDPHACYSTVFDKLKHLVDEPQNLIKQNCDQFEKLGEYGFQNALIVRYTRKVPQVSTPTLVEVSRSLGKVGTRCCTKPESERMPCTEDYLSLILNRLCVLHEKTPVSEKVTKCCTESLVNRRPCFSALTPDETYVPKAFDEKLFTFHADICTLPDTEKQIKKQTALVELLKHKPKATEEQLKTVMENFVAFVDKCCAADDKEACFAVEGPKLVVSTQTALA
G-protein coupled receptor 55, sequence (Q9Y2T6 whole entry): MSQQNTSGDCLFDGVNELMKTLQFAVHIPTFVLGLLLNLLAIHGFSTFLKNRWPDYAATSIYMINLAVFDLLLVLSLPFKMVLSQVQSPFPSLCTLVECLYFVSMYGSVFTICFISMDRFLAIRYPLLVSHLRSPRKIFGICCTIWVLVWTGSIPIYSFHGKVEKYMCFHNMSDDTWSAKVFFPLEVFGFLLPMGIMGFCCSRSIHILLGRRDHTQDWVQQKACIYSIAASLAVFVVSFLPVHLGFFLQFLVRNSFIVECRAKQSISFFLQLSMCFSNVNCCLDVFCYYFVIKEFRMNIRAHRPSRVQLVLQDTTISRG
Cytochrome P450 2C9, sequence (P11712 whole entry): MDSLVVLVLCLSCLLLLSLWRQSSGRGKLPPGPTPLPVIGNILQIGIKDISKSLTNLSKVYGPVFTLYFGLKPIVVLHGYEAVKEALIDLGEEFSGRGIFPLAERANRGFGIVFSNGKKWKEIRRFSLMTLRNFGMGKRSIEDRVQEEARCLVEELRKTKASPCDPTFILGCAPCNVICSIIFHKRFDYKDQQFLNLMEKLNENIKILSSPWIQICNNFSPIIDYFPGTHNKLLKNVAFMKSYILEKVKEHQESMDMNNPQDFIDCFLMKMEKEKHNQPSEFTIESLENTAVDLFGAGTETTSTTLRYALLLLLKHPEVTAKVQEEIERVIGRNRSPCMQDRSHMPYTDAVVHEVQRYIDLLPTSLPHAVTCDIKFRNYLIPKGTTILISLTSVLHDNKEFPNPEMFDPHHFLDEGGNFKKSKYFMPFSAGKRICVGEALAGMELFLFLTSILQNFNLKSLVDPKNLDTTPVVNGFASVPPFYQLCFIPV
Induced myeloid leukemia cell differentiation protein Mcl-1, sequence (Q07820 whole entry): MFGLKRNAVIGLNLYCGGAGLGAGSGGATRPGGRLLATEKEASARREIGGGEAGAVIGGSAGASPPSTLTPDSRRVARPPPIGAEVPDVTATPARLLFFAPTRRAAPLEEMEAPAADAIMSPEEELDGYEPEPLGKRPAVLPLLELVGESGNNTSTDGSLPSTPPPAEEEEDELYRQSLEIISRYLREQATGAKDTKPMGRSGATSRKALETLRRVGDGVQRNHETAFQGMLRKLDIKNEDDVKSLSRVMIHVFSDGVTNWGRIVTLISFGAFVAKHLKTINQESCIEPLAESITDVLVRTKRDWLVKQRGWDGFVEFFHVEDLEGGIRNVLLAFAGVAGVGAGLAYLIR
Transitional endoplasmic reticulum ATPase (Homo sapiens, UniProt P55072, C522A), sequence (P55072 2-806 C522A limits assumed): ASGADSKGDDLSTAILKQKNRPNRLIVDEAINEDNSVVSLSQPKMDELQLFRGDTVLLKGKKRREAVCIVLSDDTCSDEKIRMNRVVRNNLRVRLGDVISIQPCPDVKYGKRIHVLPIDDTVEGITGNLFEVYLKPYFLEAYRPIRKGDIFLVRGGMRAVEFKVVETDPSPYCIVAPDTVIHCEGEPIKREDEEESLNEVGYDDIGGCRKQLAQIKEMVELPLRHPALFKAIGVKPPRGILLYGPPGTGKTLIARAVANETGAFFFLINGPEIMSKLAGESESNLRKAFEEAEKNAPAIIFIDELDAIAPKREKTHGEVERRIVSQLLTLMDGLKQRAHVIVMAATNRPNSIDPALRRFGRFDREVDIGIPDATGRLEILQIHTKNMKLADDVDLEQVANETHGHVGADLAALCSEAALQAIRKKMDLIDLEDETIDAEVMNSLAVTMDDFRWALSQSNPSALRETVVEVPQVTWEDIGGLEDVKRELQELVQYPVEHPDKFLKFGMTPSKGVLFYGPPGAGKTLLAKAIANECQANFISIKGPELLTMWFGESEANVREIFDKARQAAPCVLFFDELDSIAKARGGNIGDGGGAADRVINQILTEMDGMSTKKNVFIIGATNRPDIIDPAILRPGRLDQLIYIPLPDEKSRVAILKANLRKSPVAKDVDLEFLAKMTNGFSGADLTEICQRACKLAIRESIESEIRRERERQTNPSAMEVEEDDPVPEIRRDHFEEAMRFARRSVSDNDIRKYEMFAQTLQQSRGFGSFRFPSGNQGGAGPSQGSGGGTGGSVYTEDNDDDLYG
Aspartyl aminopeptidase, sequence (Q8I2J3 whole entry): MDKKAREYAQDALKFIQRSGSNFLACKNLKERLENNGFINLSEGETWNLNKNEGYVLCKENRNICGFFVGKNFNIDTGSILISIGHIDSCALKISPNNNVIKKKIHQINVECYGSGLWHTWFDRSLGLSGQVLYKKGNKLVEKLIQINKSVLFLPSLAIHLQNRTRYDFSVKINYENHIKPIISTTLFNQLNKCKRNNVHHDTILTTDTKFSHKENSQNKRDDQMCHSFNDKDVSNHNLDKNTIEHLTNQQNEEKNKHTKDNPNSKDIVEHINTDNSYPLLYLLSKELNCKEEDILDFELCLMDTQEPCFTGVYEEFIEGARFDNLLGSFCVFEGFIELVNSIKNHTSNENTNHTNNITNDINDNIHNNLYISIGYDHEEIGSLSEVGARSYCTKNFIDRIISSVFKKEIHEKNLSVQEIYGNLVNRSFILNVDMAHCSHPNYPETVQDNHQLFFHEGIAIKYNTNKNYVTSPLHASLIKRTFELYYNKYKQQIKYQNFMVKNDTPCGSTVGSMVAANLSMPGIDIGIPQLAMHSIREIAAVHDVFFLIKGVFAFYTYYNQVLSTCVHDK
Bcl-2-like protein 1, sequence (Q07817 whole entry): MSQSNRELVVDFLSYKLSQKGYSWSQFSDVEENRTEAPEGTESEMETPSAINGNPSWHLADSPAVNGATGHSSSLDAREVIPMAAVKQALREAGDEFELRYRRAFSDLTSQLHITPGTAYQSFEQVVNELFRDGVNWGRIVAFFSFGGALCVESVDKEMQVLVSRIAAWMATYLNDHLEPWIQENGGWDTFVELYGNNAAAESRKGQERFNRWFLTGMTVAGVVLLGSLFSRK

Cc1cc(-c2csc(Nc3ccc(C#N)cc3)n2)c(C)n1C
IC50 [1]: > 50 µM (not active)
IC50 [2]: > 50 µM (not active)

COc1cc2c(c(OC)c1OC)-c1ccc(OC)c(=O)cc1[C@@H](N(C)CC#CCO)CC2
IC50 [3]: > 80 µM (inactive)
EC50 (BJ [4]): 16.7 µM (inconclusive)
EC50 (BJ [5]): 9.89 µM (active)
IC50 [6]: 0.226 µM (active)
EC50 (BJ [7]): 0.616 µM (inconclusive)
EC50 [8]: 1.45 µM (inconclusive)

CCCCOC(=O)Nc1ccc(C)c(Cl)c1
AC50 (Cytochrome P450 2C9): 11.2 µM (inconclusive)
IC50 [9]: > 100 µM (active)

CCN(CC(=O)Nc1c(F)cccc1F)C(=O)/C=C/c1ccc2ccccc2n1
IC50 (Genome polyprotein [10]): 16.7 µM (not active)
IC50 [11]: > 66.6 µM (inactive)
IC50 (Genome polyprotein [12]): 29.8 µM (inactive)
IC50 (Albumin): > 94.1 µM (inactive)
IC50 [13]: 3.46 µM (active)
IC50 (Bcl-2-like protein 1): 25.3 µM (not active)
IC50 [14]: 2.3 µM (active)

CCN(CC)c1ccc(NC(=O)CSc2nnc(N)s2)cc1C
IC50 (Large T antigen): 14.8 µM (active)
IC50 (Leucine aminopeptidase): 5.57 µM (active)
IC50 (Aspartyl aminopeptidase): > 73.5 µM (not active)
IC50 (Procathepsin L): > 59.6 µM (not active)

CC(=O)Nc1ccc(Nc2cc(C(C)C)nc3c(-c4ccccc4)c(C)nn23)cc1
EC50 [15]: 10.4 µM (active)
EC50 [16]: > 32 µM (inactive)
CC50 (Vero): > 100 µM (active)
AC50 [17]: 3.84 µM (active)
EC50 [18]: 0.211 µM (active)

CC(Cc1ccc(O)c(O)c1)C(C)Cc1ccc(O)c(O)c1 (stereo not given) [NORDIHYDROGUAIARETIC ACID]
EC50 [19]: 2.32 µM (active)
EC50 [20]: 26.1 µM (active)
IC50 (Large T antigen): 21.9 µM (active)
EC50 [21]: 8.75 µM (active)
IC50 (Estrogen receptor): 22.2 µM (active)
EC50 [22]: 9.48 µM (active)
IC50 [23]: > 80 µM (inactive)
IC50 (14-3-3 protein gamma): > 50 µM (not active)
EC50 [24]: 11.2 µM (active)
